In brackets after ≈: the same amount, converted by molar mass. Entries after “also recorded” stand apart in the source; their conditions may differ.
What was measured:
Format in all cases: cell-based
[1] = test system: C. parapsilosis ATCC 22019; assay: Disk diffusion assay for antifungal tolerance; settings: casitone agar, disk with 25 μg, 30° C.
Protocol: (§1) To investigate how tolerance is affected by the azole-COX inhibitor hybrids, a comparison of hybrids 1 and 5 to FLC and VOR in a disk diffusion assay was performed. Tolerance was evaluated by comparing the zone of inhibition after 24 h to that after 48 h. The assay was carried out on three representative strains: C. albicans, C. parapsilosis, and C. tropicalis (FIG. 7).
(§2) As shown, compared to FLC and VOR, azole-COX inhibitor hybrids 1 and 5 display reduced antifungal tolerance. Disk diffusion assays were carried out on casitone agar plates containing disks loaded with 25 μg of the tested hybrids. Plates were imaged after 24 h to evaluate antifungal activity (left half of the plate image) and after 48 h to evaluate tolerance (right half of the plate image).
(§3) Disk diffusion assay: Antifungal activities of select hybrids against C. albicans SN152, C. parapsilosis ATCC 22019, and C. tropicalis 660 were confirmed by the disk diffusion assay. Strains were streaked from frozen culture onto YPAD agar and incubated for 24 h at 30° C. Two or three colonies were placed into 1 mL of PBS solution, and OD600 was determined with a TECAN Infinite. OD600 was adjusted to 0.02 for C. albicans SN152 and to 0.025 for C. parapsilosis ATCC 22019 and C. tropicalis 660 by dilution with PBS. Aliquots of 200 μL of the diluted cultures of each strain were plated onto 15-mL casitone agar plates and spread using sterile beads (3 mm, Fisher Scientific). After the plates dried, a single disk (6-mm diameter, Becton Dickinson) with 25 μg of the hybrid being tested was placed in the center of each plate. Plates were then incubated at 30° C. and photographed under the same imaging conditions after 24 h and 48 h. FLC and VOR were used as control drugs.

C. tropicalis 660 [2] = assay: Disk diffusion assay for antifungal tolerance; settings: casitone agar, disk with 25 μg, 30° C.
Protocol: as §1, §2, §3

C. albicans SN152 = assay: Disk diffusion assay for antifungal tolerance; settings: casitone agar, disk with 25 μg, 30° C.
Protocol: as §1, §2, §3

C. albicans ATCC 24433 = assay: MIC80 broth double-dilution assay; settings: YPAD medium, 30° C., 24 h; for MIC80: Candida albicans, ATCC24433, read-out: MIC80 against C. albicans 24433
Summary of the method: (§4)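 CLSI M27-A3-based broth microdilution in YPAD over 0.003–64 μg/mL, inoculum from 1×10^−3 OD600 suspension diluted 1:100. OD600 read after 24 h at 30 °C; MIC80 taken as lowest concentration giving >80% growth reduction versus no-drug wells. Triplicates, two independent experiments.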

C. albicans SC5314 = assay: MIC80 broth double-dilution assay; settings: YPAD medium, 30° C., 24 h; for MIC80: Candida albicans, SC5314, read-out: MIC80 against C. albicans SC5314
Summary of the method: as §4

C. albicans ATCC 90028 = assay: MIC80 broth double-dilution assay; settings: YPAD medium, 30° C., 24 h; for MIC80: Candida albicans, ATCC90028, read-out: MIC80 against C. albicans 90028
Summary of the method: as §4

C. dubliniensis T-99 = assay: MIC80 broth double-dilution assay; settings: YPAD medium, 30° C., 24 h; for MIC80: Candida dubliniensis, T99, read-out: MIC80 against C. dubliniensis T-99
Summary of the method: as §4

C. tropicalis 660 [3] = assay: MIC80 broth double-dilution assay; settings: YPAD medium, 30° C., 24 h; for MIC80: Candida tropicalis, 660, read-out: MIC80 against C. tropicalis 660
Summary of the method: as §4

C. albicans P-87 = assay: MIC80 broth double-dilution assay; settings: YPAD medium, 30° C., 24 h; for MIC80: Candida albicans, P87, read-out: MIC80 against C. albicans P-87
Summary of the method: as §4

C. guilliermondii T-47 = assay: MIC80 broth double-dilution assay; settings: YPAD medium, 30° C., 24 h; for MIC80: Meyerozyma guilliermondii, T47, read-out: MIC80 against C. guilliermondii T-47
Summary of the method: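 Broth double dilution following modified CLSI M27-A3, YPAD medium, compound range 64 to 0.003 μg/mL; inoculum from 1×10^−3 OD600 suspension diluted 1:100. After 24 h at 30 °C, MIC80 taken as lowest concentration reducing OD600 by >80% versus no-drug control; triplicates, fluconazole and voriconazole as controls.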

[4] = test system: C. parapsilosis ATCC 22019; assay: MIC80 broth double-dilution assay; settings: YPAD medium, 30° C., 24 h; for MIC80: Lodderomyces parapsilosis, ATCC22019, read-out: MIC80 against C. parapsilosis 22019
Summary of the method: as §4

Compound	Tolerance: zone of inhibition after 48 h compared with 24 h [1]	Tolerance: zone of inhibition after 48 h compared with 24 h (C. tropicalis 660 [2])	Tolerance: zone of inhibition after 48 h compared with 24 h (C. albicans SN152)	MIC80 against C. albicans 24433 (C. albicans ATCC 24433)	MIC80 against C. albicans SC5314 (C. albicans SC5314)	MIC80 against C. albicans 90028 (C. albicans ATCC 90028)	MIC80 against C. dubliniensis T-99 (C. dubliniensis T-99)	MIC80 against C. tropicalis 660 (C. tropicalis 660 [3])	MIC80 against C. albicans P-87 (C. albicans P-87)	MIC80 against C. guilliermondii T-47 (C. guilliermondii T-47)	MIC80 against C. parapsilosis 22019 [4]	MIC80 (C. albicans ATCC 24433)	MIC80 [4]	MIC80 (C. albicans SC5314)	MIC80 (C. albicans ATCC 90028)	MIC80 (C. dubliniensis T-99)	MIC80 (C. tropicalis 660 [3])	MIC80 (C. albicans P-87)	MIC80 (C. guilliermondii T-47)
C[C@H](C(=O)NC[C@](O)(Cn1cncn1)c1ccc(F)cc1F)c1ccc(-c2ccccc2)c(F)c1 [Hybrid 5]	reduced tolerance; also recorded: markedly lower than that to VOR	reduced tolerance	reduced tolerance	0.03 µg/mL (≈ 0.0624 µM)	0.007 µg/mL (≈ 0.0146 µM)	0.015 µg/mL (≈ 0.0312 µM)	0.5 µg/mL (≈ 1.04 µM)	0.06 µg/mL (≈ 0.125 µM)	0.015 µg/mL (≈ 0.0312 µM)	0.5 µg/mL (≈ 1.04 µM)	–	–	–	–	–	–	–	–	–
CC(C)Cc1ccc([C@H](C)C(=O)NC[C@](O)(Cn2cncn2)c2ccc(F)cc2F)cc1 [Hybrid 1]	reduced tolerance	reduced tolerance	reduced tolerance	0.007 µg/mL (≈ 0.0158 µM)	0.003 µg/mL (≈ 0.00678 µM)	0.003 µg/mL (≈ 0.00678 µM)	0.06 µg/mL (≈ 0.136 µM)	0.03 µg/mL (≈ 0.0678 µM)	0.003 µg/mL (≈ 0.00678 µM)	0.06 µg/mL (≈ 0.136 µM)	0.007 µg/mL (≈ 0.0158 µM)	–	–	–	–	–	–	–	–
OC(Cn1cncn1)(Cn1cncn1)c1ccc(F)cc1F [FLC, fluconazole]	covered by drug tolerant colonies	the drug tolerant subpopulation was smaller	covered by drug tolerant colonies	–	–	–	–	–	–	–	–	1 µg/mL (≈ 3.27 µM)	1 µg/mL (≈ 3.27 µM)	0.5 µg/mL (≈ 1.63 µM)	0.5 µg/mL (≈ 1.63 µM)	0.25 µg/mL (≈ 0.816 µM)	1 µg/mL (≈ 3.27 µM)	1 µg/mL (≈ 3.27 µM)	4 µg/mL (≈ 13.1 µM)
C[C@@H](c1ncncc1F)[C@](O)(Cn1cncn1)c1ccc(F)cc1F [VOR, voriconazole, reference compound]	covered by drug tolerant colonies	the drug tolerant subpopulation was smaller	covered by drug tolerant colonies	–	–	–	–	–	–	–	–	0.015 µg/mL (≈ 0.0429 µM)	0.015 µg/mL (≈ 0.0429 µM)	0.007 µg/mL (≈ 0.02 µM)	0.007 µg/mL (≈ 0.02 µM)	0.03 µg/mL (≈ 0.0859 µM)	0.12 µg/mL (≈ 0.344 µM)	0.007 µg/mL (≈ 0.02 µM)	0.06 µg/mL (≈ 0.172 µM)

From US20250018048A1, “FLUCONAZOLE-COX INHIBITOR HYBRIDS: A DUAL-ACTING CLASS OF ANTIFUNGAL AZOLES” (Ramot at Tel-Aviv University Ltd., priority 2022, published 2025)
